The species named for one series is Homo sapiens. Nature of the series: Selectivity ratio of IC50 for inhibition of recombinant His6-tagged human Max homodimer/HEX-tagged double-stranded oligonucleotide complex formation to IC50 for inhibition of recombinant His6-tagged bHLH-LZ domain of human Myc/His6-tagged human Max/HEX-tagged double-stranded oligonucleotide complex formation.
A short description of series [1]: Protein binding in mouse plasma after 4 hrs by rapid equilibrium dialysis method. The series is classed as ADME, cell-free. To be noted: read-out: PPB. For orientation: In equilibrium dialysis free small molecules cross a membrane that holds back macromolecules.
The subject of the next series is B16-F10. The series is described as follows: Cytotoxicity against mouse B16F10 cells assessed as decrease in cell viability after 24 hrs by MTT assay. The format is functional, cell-based. To be noted: B16-F10, 24 h.
Series [2] addresses Bromodomain-containing protein 4 (Homo sapiens, UniProt O60885). Nature of the series: Inhibition of human His-tagged BRD4 expressed in Escherichia coli BL21(DE3)-R3-pRARE2 cells preincubated for 30 mins followed by biotinylated acetyl-histone addition and measured after 30 mins by AlphaScreen method.
A short description of series [3]: Inhibition of [32P]-labeled CREB KID (unknown origin) binding to GST-fused mouse CBP KIX domain preincubated with GST-fused CBP for 15 mins followed by CREB addition and measured after 30 mins by SDS-gel electrophoresis/autoradiographic method. Details: species or system Homo sapiens.
In series [4] the target is Mitogen-activated protein kinase kinase kinase 14 (Homo sapiens, UniProt Q99558). The series is described as follows: Inhibition of NIK (unknown origin) by HTRF method.

pIC50, pKi: −log10 of the molar value.

In general, pIC50 refers to −log10 of the IC50, conventionally taken in molar units. A word on the pKi: it is −log10 of the Ki, conventionally taken in molar units. A lower pKi goes with a high Ki.

Chain of Mitogen-activated protein kinase kinase kinase 14 (Q99558 whole entry): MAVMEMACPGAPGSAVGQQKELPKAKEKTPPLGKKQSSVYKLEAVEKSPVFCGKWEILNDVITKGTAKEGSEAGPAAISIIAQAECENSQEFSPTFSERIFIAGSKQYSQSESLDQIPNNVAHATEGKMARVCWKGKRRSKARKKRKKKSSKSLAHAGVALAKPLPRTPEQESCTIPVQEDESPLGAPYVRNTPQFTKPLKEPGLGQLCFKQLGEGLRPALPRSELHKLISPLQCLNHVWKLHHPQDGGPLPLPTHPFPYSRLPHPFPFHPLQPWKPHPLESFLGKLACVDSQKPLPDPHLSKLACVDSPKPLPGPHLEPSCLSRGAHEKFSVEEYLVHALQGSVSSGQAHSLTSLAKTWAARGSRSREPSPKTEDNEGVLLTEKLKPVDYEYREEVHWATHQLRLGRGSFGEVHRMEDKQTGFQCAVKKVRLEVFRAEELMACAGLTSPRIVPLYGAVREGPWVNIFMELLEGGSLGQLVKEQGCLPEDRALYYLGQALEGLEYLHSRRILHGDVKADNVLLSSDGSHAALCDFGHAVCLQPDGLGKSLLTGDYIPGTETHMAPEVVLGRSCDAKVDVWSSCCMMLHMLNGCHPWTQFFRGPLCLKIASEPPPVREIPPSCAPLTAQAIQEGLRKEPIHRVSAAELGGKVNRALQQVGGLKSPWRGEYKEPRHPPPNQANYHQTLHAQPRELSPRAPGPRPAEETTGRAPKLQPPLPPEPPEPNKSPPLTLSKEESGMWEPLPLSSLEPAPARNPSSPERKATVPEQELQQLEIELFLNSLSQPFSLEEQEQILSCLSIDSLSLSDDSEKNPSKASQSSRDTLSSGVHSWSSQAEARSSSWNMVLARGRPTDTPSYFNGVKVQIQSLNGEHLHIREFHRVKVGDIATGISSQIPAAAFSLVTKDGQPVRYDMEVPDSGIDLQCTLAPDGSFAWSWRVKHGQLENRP

On to `COC(=O)c1ccc(Nc2ccc([N+](=O)[O-])c3nonc23)c(-c2ccc(C)cc2)c1`, for which the Ratio IC50 in the series listed under Homo sapiens was 2.
As to `COc1ccc(C2=Nn3c(nnc3-c3cc(-c4ccc(Cl)cc4)n[nH]3)SC2C)cc1` (configuration not stated), in series [1], the fraction unbound at 4 h was less than 0.001.
Turning to `CC(C)(O)/C=C/C(=O)[C@@](C)(O)[C@H]1C(O)C[C@@]2(C)[C@@H]3CC=C4[C@@H](C=C(O)C(=O)C4(C)C)[C@]3(C)CC[C@]12C` (some centres not stated), in the series with B16-F10, the pIC50 was 5.00.
Turning to `Cc1nnn2c1-c1ccc(-c3cc[nH]n3)cc1C(c1ccc(Cl)cc1)=NC2`, the negative-log IC50 (pIC50) in series [2] was 8.70.
The same measure, in the same setting: next, `Cc1nnn2c1-c1ccc(-c3ccc(N)nc3)cc1C(c1ccc(Cl)cc1)=NC2`: 8.22.
`O=C(Nc1ccc(Cl)cc1)c1cc2ccccc2cc1OP(=O)(O)O` gave a negative logarithm of the IC50 (pIC50) in series [3] of 4.05.
The molecule `C[C@](O)(C#Cc1ccc2ncc(-c3nc(N)ncc3Cl)n2c1)c1nccs1` had a negative logarithm of the Ki (pKi) in series [4] of 9.52.

Values taken from ChEMBL document CHEMBL4257547, “Chemical modulation of transcription factors” (Medchemcomm, 2018).
